Laboratory results taken from the NIST ThermoML archive (doi:10.1021/je900437b).

Assay: xn = mol fraction of the nth substance listed
Conditions: 101 kPa, Liquid; for speed of sound: Sing-around technique in a fixed-path interferometer; for mass density: Vibrating tube method

OCCN(CCO)CCO [triethanolamine] + NCCO
Conditions | mass density [kg/m3] | speed of sound [m/s]
298.15 K, x2 = 0 | 1120.82 | 1610.5
298.15 K, x2 = 0.1159 | 1116.38 | 1625.2
298.15 K, x2 = 0.2165 | 1111.37 | 1637.8
298.15 K, x2 = 0.3017 | 1106.52 | 1648.4
298.15 K, x2 = 0.3788 | 1101.52 | 1658.1
298.15 K, x2 = 0.4492 | 1096.35 | 1666.8
298.15 K, x2 = 0.5121 | 1091.14 | 1674.3
298.15 K, x2 = 0.6192 | 1080.56 | 1686.4
298.15 K, x2 = 0.7099 | 1069.5 | 1695.9
298.15 K, x2 = 0.7849 | 1058.49 | 1702.7
298.15 K, x2 = 0.8509 | 1046.99 | 1708
298.15 K, x2 = 0.907 | 1035.53 | 1712.1
298.15 K, x2 = 0.9561 | 1023.91 | 1715.6
303.15 K, x2 = 0 | 1118.06 | 1600.5
303.15 K, x2 = 0.1159 | 1113.44 | 1615.2
303.15 K, x2 = 0.2165 | 1108.35 | 1628
303.15 K, x2 = 0.3017 | 1103.4 | 1638.7
303.15 K, x2 = 0.3788 | 1098.32 | 1648.3
303.15 K, x2 = 0.4492 | 1093.05 | 1656.7
303.15 K, x2 = 0.5121 | 1087.76 | 1663.9
303.15 K, x2 = 0.6192 | 1077.07 | 1675.3
303.15 K, x2 = 0.7099 | 1065.88 | 1683.4
303.15 K, x2 = 0.7849 | 1054.74 | 1689.1
303.15 K, x2 = 0.8509 | 1043.15 | 1693.5
303.15 K, x2 = 0.907 | 1031.61 | 1697.1
303.15 K, x2 = 0.9561 | 1019.93 | 1700.3
308.15 K, x2 = 0 | 1115.26 | 1595.5
308.15 K, x2 = 0.1159 | 1110.42 | 1610
308.15 K, x2 = 0.2165 | 1105.26 | 1622.1
308.15 K, x2 = 0.3017 | 1100.25 | 1632
308.15 K, x2 = 0.3788 | 1095.08 | 1640.8
308.15 K, x2 = 0.4492 | 1089.75 | 1648.6
308.15 K, x2 = 0.5121 | 1084.39 | 1655.1
308.15 K, x2 = 0.6192 | 1073.56 | 1665
308.15 K, x2 = 0.7099 | 1062.26 | 1671.8
308.15 K, x2 = 0.7849 | 1051.01 | 1676.7
308.15 K, x2 = 0.8509 | 1039.31 | 1680.6
308.15 K, x2 = 0.907 | 1027.72 | 1683.5
308.15 K, x2 = 0.9561 | 1015.99 | 1685.9
313.15 K, x2 = 0 | 1112.4 | 1587
313.15 K, x2 = 0.1159 | 1107.47 | 1601.8
313.15 K, x2 = 0.2165 | 1102.16 | 1613.9
313.15 K, x2 = 0.3017 | 1097.05 | 1623.6
313.15 K, x2 = 0.3788 | 1091.8 | 1631.9
313.15 K, x2 = 0.4492 | 1086.4 | 1639.2
313.15 K, x2 = 0.5121 | 1080.99 | 1645.2
313.15 K, x2 = 0.6192 | 1070.01 | 1654.6
313.15 K, x2 = 0.7099 | 1058.62 | 1661.1
313.15 K, x2 = 0.7849 | 1047.27 | 1665.1
313.15 K, x2 = 0.8509 | 1035.49 | 1667.6
313.15 K, x2 = 0.907 | 1023.83 | 1669
313.15 K, x2 = 0.9561 | 1012.03 | 1670
318.15 K, x2 = 0 | 1109.6 | 1578.8
318.15 K, x2 = 0.1159 | 1104.53 | 1593.8
318.15 K, x2 = 0.2165 | 1099.15 | 1605.9
318.15 K, x2 = 0.3017 | 1093.95 | 1614.8
318.15 K, x2 = 0.3788 | 1088.58 | 1622.6
318.15 K, x2 = 0.4492 | 1083.06 | 1629.4
318.15 K, x2 = 0.5121 | 1077.57 | 1635.1
318.15 K, x2 = 0.6192 | 1066.47 | 1643.9
318.15 K, x2 = 0.7099 | 1054.94 | 1649.5
318.15 K, x2 = 0.7849 | 1043.54 | 1652.8
318.15 K, x2 = 0.8509 | 1031.7 | 1654.6
318.15 K, x2 = 0.907 | 1019.92 | 1655.3
318.15 K, x2 = 0.9561 | 1008.07 | 1655.3
323.15 K, x2 = 0 | 1106.78 | 1570.6
323.15 K, x2 = 0.1159 | 1101.56 | 1585.9
323.15 K, x2 = 0.2165 | 1096.03 | 1597.2
323.15 K, x2 = 0.3017 | 1090.73 | 1605.9
323.15 K, x2 = 0.3788 | 1085.31 | 1613.5
323.15 K, x2 = 0.4492 | 1079.76 | 1620.1
323.15 K, x2 = 0.5121 | 1074.18 | 1625.6
323.15 K, x2 = 0.6192 | 1062.92 | 1633.2
323.15 K, x2 = 0.7099 | 1051.26 | 1637.5
323.15 K, x2 = 0.7849 | 1039.74 | 1639.8
323.15 K, x2 = 0.8509 | 1027.82 | 1641.3
323.15 K, x2 = 0.907 | 1016 | 1641.8
323.15 K, x2 = 0.9561 | 1004.09 | 1641
